# Several values for one entry are separate records, joined by “and”; a condition that tells them apart may be missing. Identical values can stand only once. Square brackets hold non-standard residues; d marks the D form. * marks the point of attachment. Myristoyl = CCCCCCCCCCCCCC(=O)*; Nle = CCCC[C@H](N)C(=O)O
# Test system: mouse aortic rings
# Assay: Aortic ring assay ex-vivo (capillary sprouting from mouse aortic rings in collagen; repeated with VEGF)
# Type: cell-based
# Set-up: Capillary length 10 μM (10 μM) / Capillary length 20 μM / Capillary length 10 μM: unit not given here
# Protocol: Thoracic aortas were dissected from 7- to 8-week-old male SABRA mice. The aortas were immediately transferred to Petri dishes containing BIO-MPM-1. The adventitia and small vessels around the aorta were carefully removed under a dissecting microscope, and transverse cuts of 0.75 mm were made. The resulting aortic rings were extensively rinsed and incubated overnight in BIO-MPM-1 containing penicillin-streptomycin. Subsequently, the rings were embedded in 50 μl collagen mix (7 parts collagen, 1 part 10× Eagle minimal essential medium, MEM, and 2 parts 0.15 M sodium bicarbonate) in 96-well plates (Nunc, Rochester, N.Y.). Solidification of the collagen solution was achieved by raising the pH to neutral and the temperature to 37° C. 150 μl BIO-MPM-1 containing penicillin-streptomycin and the tested factors or peptides) was added to the embedded rings, and the plates were incubated at 37° C. in a humidified 10% CO2 atmosphere. Medium containing factors and/or peptides was refreshed at days 4 and 8. After two weeks, the rings were fixed with 4% formaldehyde for 24 hours, followed by staining with crystal violet (0.02%) dissolved in ethanol and extensive washing to remove excessive stain. The effect of factors and peptides was examined in 4 wells (4 rings of mouse aortic rings) per assay. Micrographs of representative rings were taken using a digital camera (Nikon, Tokyo, Japan). Morphometric analysis of sprouting was performed manually using Image-Pro 4.5 software (Media Cybernetics, Silver Spring, Md.) according to Nissanov et al. (Lab Invest. 1995; 73:734-739). Nonstained rings were subjected to paraffin sections and hematoxylin and eosin (H&E) staining.
# FIGS. 1A-1C represents aortic ring capillary length and FIGS. 2A-2C aortic ring capillary width. In the table: K-Flu is a Lysine residue coupled with a fluorescein moiety, 4BrPhe is 4-bromo-Phenylalanine, Dod is Dodecanoyl, Dec designates Decanoyl, Oct is Octanoyl, and Hex is Hexanoyl.
# The aortic ring assay was repeated in the presence of 10 μM concentration of peptides AB-033 (SEQ ID NO: 13) and AB-034 (SEQ ID NO: 14) together with the pro-angiogenetic protein VEGF.
substance,measurement,setting,value
Myr-Gly-Nle-Arg-Pro-Tyr-NH2 (Myristoyl-G[Nle]RPY-NH2; SMILES CCCCCCCCCCCCCC(=O)NCC(=O)N[C@@H](CCCC)C(=O)N[C@@H](CCCNC(=N)N)C(=O)N1CCC[C@H]1C(=O)N[C@@H](Cc1ccc(O)cc1)C(N)=O) [AB-017],capillary / vessel formation (in words),"aortic ring assay, FIGS. 1A-1C and 2A-2C",induce massive capillary formation
same,Capillary length 10 μM,"peptide 10 μM, rings fixed after two weeks","3,100 and 3,770"
same,Capillary length 20 μM,"peptide 20 μM, rings fixed after two weeks","11,200 and 15,300"

# Source: US9873724B2, “Pro-angiogenic peptides and peptide conjugates” (Yissum Research Development Company of the Hebrew …, priority 2013, dated 2018)
